Read-outs that look alike come from different tables or passages of the source.
Tests used:
Format in all cases: cell-based
[1] = biological target: T1, mitochondrial complex I (NADH: ubiquinone oxidoreductase) (Rattus norvegicus, UniProt A6K8N6+P03889+Q641Y2); conditions: read-out: % inhibition at 200 μM
[2] = biological target: T1, mitochondrial complex I (NADH: ubiquinone oxidoreductase); conditions: read-out: % inhibition at 10 μM
[3] = biological target: T1, mitochondrial complex I (NADH: ubiquinone oxidoreductase); conditions: read-out: % inhibition at 10 μM; remark: listed apart in the source
[4] = biological target: T1, mitochondrial complex I (NADH: ubiquinone oxidoreductase); conditions: read-out: % inhibition at 10 μM; remark: listed apart in the source
[5] = biological target: T1, mitochondrial complex I (NADH: ubiquinone oxidoreductase); conditions: read-out: % inhibition at 10 μM; remark: listed apart in the source
[6] = biological target: T1, mitochondrial complex I (NADH: ubiquinone oxidoreductase); conditions: read-out: % inhibition at 10 μM; remark: listed apart in the source

## C[n+]1ccc(-c2ccccc2)cc1 [A, 1-methyl-4-phenylpyridinium]
[1]
  inhibition at 200 µM: 12.5%

## CCN1C(=Cc2ccc3ccccc3[n+]2CC)C=Cc2ccccc21 [B, 2,2’-cyanine]
[2]
  inhibition at 10 µM: 70.8%

## CCN1C=CC(=Cc2cc[n+](CC)c3ccccc23)c2ccccc21 [C, 4,4’-cyanine]
[3]
  inhibition at 10 µM: 60.8%

## CCN1C(=CC=Cc2oc3ccccc3[n+]2CC)Oc2ccccc21 [D, DiOC2(3)]
[4]
  inhibition at 10 µM: 79%

## CCCN1C(=CC=Cc2sc3ccccc3[n+]2CCC)Sc2ccccc21 [E, DiSC3(3)]
[5]
  inhibition at 10 µM: 83%

## CCCN1C(=CC=CC=Cc2sc3ccccc3[n+]2CCC)Sc2ccccc21 [F, DiSC3(5)]
[5]
  inhibition at 10 µM: 83%

## C=C(C)[C@H]1Cc2c(ccc3c2O[C@@H]2COc4cc(OC)c(OC)cc4[C@@H]2C3=O)O1 [H, rotenone]
[6]
  inhibition at 10 µM: 88%
